Experimental data: patent US20230212144A1, “5-MEMBERED HETEROARYL DERIVATIVE CONTAINING AT LEAST ONE N, AND PHARMACEUTICAL COMPOSITION FOR PREVENTING OR TREATING MENTAL DISORDERS, CONTAINING SAME AS ACTIVE INGREDIENT” (DAEGU-GYEONGBUK MEDICAL INNOVATION FOUNDATION, priority 2020, published 2023)

What was measured:
[1] = target: serotonin transporter (SERT) (Homo sapiens, UniProt P31645); test: Serotonin reuptake inhibition, [3H]-5-HT, cells transfected with 5-HT transporter cDNA; conditions: for Triple reuptake inhibition (Ratio %) SERT: compound 1 μM, relative to control without compound (100%), lower value = stronger inhibition
serotonin transporter (SERT), sequence (P31645 whole entry, species assumed): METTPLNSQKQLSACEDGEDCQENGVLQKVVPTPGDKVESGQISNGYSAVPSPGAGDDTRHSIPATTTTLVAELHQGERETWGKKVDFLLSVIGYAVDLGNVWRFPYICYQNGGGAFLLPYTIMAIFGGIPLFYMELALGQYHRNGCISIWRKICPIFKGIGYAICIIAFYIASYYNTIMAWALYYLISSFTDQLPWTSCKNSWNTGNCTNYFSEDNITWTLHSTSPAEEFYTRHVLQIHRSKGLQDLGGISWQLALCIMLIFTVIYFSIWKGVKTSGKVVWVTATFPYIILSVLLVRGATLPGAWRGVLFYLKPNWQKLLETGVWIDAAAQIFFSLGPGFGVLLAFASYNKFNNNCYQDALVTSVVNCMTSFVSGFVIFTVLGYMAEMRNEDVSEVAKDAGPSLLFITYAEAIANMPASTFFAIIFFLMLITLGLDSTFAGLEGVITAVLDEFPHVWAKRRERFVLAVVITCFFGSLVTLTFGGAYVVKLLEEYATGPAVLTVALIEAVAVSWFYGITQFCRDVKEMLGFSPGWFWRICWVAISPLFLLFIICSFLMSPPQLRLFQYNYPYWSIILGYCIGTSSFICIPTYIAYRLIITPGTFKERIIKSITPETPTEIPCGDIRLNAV
Procedure: (§1) After removing the medium, each compound of Examples or Comparative Examples diluted to 1 μM in uptake buffer was added to a concentration of 200 μL/well and cultured at 37° C. for 15 minutes. 100 μL of uptake buffer containing 20-30 nM [3H]-DA was added and cultured at 37° C. for 5 minutes. The reaction solution was quickly removed and washed three times with 1 mL ice-cold uptake buffer. After dissolving the resultant in 1% SDS (0.5 mL), the degree of binding of radioisotope-labeled dopamine to the transporter was measured.
(§2) For norepinephrine(NE) and serotonin(5-HT), the degree of binding of radioisotope-labeled norepinephrine or serotonin to the transporter was measured in the same manner as above, except that cells transfected with NE or 5-HT transporter cDNA were used and [3H]-NE or [3H]-5-HT was used as a substrate.
(§3) In addition, when evaluating the reuptake inhibitory effect on dopamine, norepinephrine, and serotonin, the same method was performed without treating each compound of Examples or Comparative Examples as a control, the degree of binding of radioisotope-labeled dopamine, norepinephrine, and serotonin to the transporter was measured, and by using this as a reference (100%), the triple reuptake inhibitory effect was evaluated as a relative ratio (Ratio %). That is, in the control group, the binding of dopamine, norepinephrine, and serotonin to transporters is not inhibited, but when each compound of Examples is treated and thus the binding is inhibited, the Ratio % value decreases.

[2] = target: norepinephrine transporter (NET) (Homo sapiens, UniProt P23975); test: Norepinephrine reuptake inhibition, [3H]-NE, cells transfected with NE transporter cDNA; conditions: for Triple reuptake inhibition (Ratio %) NET: compound 1 μM, relative to control without compound (100%), lower value = stronger inhibition
norepinephrine transporter (NET), sequence (P23975 whole entry, species assumed): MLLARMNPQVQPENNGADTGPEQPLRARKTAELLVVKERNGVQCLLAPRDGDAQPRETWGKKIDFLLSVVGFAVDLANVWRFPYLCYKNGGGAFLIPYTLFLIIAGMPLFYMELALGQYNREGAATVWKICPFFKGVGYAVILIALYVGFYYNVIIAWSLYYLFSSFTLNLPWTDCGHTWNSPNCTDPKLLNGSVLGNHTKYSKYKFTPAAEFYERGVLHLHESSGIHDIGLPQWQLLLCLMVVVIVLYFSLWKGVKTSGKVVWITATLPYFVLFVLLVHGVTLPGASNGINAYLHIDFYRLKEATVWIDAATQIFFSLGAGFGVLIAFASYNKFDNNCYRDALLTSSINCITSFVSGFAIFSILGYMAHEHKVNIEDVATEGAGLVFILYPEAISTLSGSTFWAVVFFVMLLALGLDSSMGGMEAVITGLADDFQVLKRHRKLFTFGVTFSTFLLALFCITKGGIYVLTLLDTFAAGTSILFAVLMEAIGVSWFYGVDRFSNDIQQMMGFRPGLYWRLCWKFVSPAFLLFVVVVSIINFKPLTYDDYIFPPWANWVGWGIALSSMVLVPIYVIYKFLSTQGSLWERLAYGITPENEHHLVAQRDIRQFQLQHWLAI
Procedure: as §1, §2, §3

[3] = target: dopamine transporter (DAT) (Homo sapiens, UniProt Q01959); test: Dopamine reuptake inhibition, [3H]-DA, HEK-293 cells transfected with dopamine transporter cDNA; conditions: for Triple reuptake inhibition (Ratio %) DAT: compound 1 μM, relative to control without compound (100%), lower value = stronger inhibition
dopamine transporter (DAT), sequence (Q01959 whole entry, species assumed): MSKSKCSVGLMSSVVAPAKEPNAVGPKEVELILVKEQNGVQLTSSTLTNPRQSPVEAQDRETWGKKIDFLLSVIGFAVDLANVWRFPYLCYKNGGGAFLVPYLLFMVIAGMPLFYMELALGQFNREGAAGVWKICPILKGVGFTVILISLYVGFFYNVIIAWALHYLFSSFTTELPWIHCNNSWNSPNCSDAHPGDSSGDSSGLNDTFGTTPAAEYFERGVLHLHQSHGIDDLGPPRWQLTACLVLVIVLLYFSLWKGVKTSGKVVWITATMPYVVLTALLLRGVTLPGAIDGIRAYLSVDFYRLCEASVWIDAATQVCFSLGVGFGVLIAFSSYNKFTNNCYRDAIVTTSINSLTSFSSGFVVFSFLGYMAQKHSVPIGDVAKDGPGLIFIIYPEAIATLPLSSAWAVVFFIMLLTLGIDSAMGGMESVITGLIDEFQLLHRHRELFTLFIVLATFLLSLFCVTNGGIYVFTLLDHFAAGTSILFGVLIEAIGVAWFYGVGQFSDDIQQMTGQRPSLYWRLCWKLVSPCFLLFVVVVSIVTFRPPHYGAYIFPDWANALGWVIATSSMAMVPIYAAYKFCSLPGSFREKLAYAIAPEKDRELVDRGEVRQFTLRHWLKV

| Triple reuptake inhibition (Ratio %) SERT [1] | Triple reuptake inhibition (Ratio %) NET [2] | Triple reuptake inhibition (Ratio %) DAT [3] | IC50 [1] | IC50 [2] | IC50 [3] | Compound |
| --- | --- | --- | --- | --- | --- | --- |
| 57.01% | 86.61% | 62.96% | – | – | – | Clc1ccc2[nH]cc(-c3nnc(CN4CCC(Cc5ccccc5)CC4)[nH]3)c2c1 [Example 41, 3-(5-((4-benzylpiperidin-1-yl)methyl)-4H-1,2,4-triazol-3-yl)-5-chloro-1H-indole] |
| 88.78% | 53.01% | 26.92% | – | – | – | c1ccc(CC2CCN(Cc3nnc(-c4cc5ccccc5s4)[nH]3)CC2)cc1 [Example 26, 1-((5-(benzo[b]thiophen-2-yl)-4H-1,2,4-triazol-3-yl)methyl)-4-benzylpiperidine] |
| 53.66% | 92.42% | 50.15% | 648 nM | 924 nM | 670 nM | Clc1cccc2c(-c3nnc(CN4CCC(Cc5ccccc5)CC4)[nH]3)c[nH]c12 [Example 40, 3-(5-((4-benzylpiperidin-1-yl)methyl)-4H-1,2,4-triazol-3-yl)-7-chloro-1H-indole] |
| 73.17% | 76.00% | 26.92% | – | – | – | c1ccc(CC2CCN(Cc3nnc(-c4cc5ccccc5o4)[nH]3)CC2)cc1 [Example 25, 1-((5-(benzofuran-2-yl)-4H-1,2,4-triazol-3-yl)methyl)-4-benzylpiperidine] |
| 41.52% | 85.40% | 69.78% | – | – | – | COc1ccc2[nH]cc(-c3nnc(CN4CCC(Cc5ccccc5)CC4)[nH]3)c2c1 [Example 36, 3-(5-((4-benzylpiperidin-1-yl)methyl)-4H-1,2,4-triazol-3-yl)-5-methoxy-1H-indole] |
| 27.71% | 79.91% | 40.29% | 322 nM | 1570 nM | 349 nM | COc1cccc2c(-c3nnc(CN4CCC(Cc5ccccc5)CC4)[nH]3)c[nH]c12 [Example 37, 3-(5-((4-benzylpiperidin-1-yl)methyl)-4H-1,2,4-triazol-3-yl)-7-methoxy-1H-indole] |
| 56.55% | 37.21% | 20.95% | 580 nM | 463 nM | 208 nM | NC(=O)c1ccc2[nH]c(-c3nnc(CN4CCC(Cc5ccccc5)CC4)[nH]3)cc2c1 [Example 57, 2-(5-((4-benzylpiperidin-1-yl)methyl)-4H-1,2,4-triazol-3-yl)-1H-indol-5-carboxamide] |
| 63.99% | 44.81% | 11.41% | 1770 nM | 475 nM | 223 nM | FC(F)(F)Oc1ccc(-c2nnc(CN3CCC(Cc4ccccc4)CC3)[nH]2)cc1 [Example 49, 4-benzyl-1-((5-(4-(trifluoromethoxy)phenyl)-4H-1,2,4-triazol-3-yl)methyl)piperidine] |
| 32.68% | 32.54% | 19.20% | 276 nM | 459 nM | 204 nM | COc1cc2cc(-c3nnc(CN4CCC(Cc5ccc(Cl)c(Cl)c5)CC4)[nH]3)[nH]c2cc1OC [Example 31, 2-(5-((4-(3,4-dichlorobenzyl)piperidin-1-yl)methyl)-4H-1,2,4-triazol-3-yl)-5,6-dimethoxy-1H-indole] |

| Compound | Triple reuptake inhibition (Ratio %) SERT [1] | Triple reuptake inhibition (Ratio %) NET [2] | Triple reuptake inhibition (Ratio %) DAT [3] | IC50 [1] | IC50 [2] | IC50 [3] |
| --- | --- | --- | --- | --- | --- | --- |
| c1ccc(CC2CCN(Cc3nnc(-c4ccccc4)[nH]3)CC2)cc1 [Example 9, 4-benzyl-1-((5-phenyl-4H-1,2,4-triazol-3-yl)methyl)piperidine] | 95.15% | 73.45% | 32.29% | – | – | – |
